Tested on: phospho-myosin light chain 2 (pMLC2) S19
Test: pMLC2 flow cytometry assay in mouse whole blood in vitro
Assay type: cell-based
Conditions: ROCK1/2 inhibitor added to top concentration (30 µM) of BLU4565

CC1=C(C(=O)Nc2cc3cn[nH]c3cc2F)C(c2ccc(C(F)(F)F)cc2)CC(=O)N1 (stereo not shown) [GSK429286A]
further reduction of pMLC2 median fluorescence intensity signal compared with BLU4565 alone: Minimal further reduction

Source: article PMC11536310, “Evaluation of STK17B as a cancer immunotherapy target utilizing highly potent and selective small molecule inhibitors” (Frontiers in Immunology, 2024)
